Values joined by “and” are separate entries in the source; they are usually repeats but may differ in a detail not shown here. Equal entries are not always repeated. “Also recorded” adds a separate entry of the source.
Assays:
Format in all cases: biochemical
Polθ-pol = biological target: T1, Polθ-pol (Homo sapiens, UniProt O75417); assay: MMEJ in vitro assay
T1 construct: purified recombinant human Polθ-pol (comprising amino acid residues 1792–2590); made in house
T1 sequence (O75417 1792-2590): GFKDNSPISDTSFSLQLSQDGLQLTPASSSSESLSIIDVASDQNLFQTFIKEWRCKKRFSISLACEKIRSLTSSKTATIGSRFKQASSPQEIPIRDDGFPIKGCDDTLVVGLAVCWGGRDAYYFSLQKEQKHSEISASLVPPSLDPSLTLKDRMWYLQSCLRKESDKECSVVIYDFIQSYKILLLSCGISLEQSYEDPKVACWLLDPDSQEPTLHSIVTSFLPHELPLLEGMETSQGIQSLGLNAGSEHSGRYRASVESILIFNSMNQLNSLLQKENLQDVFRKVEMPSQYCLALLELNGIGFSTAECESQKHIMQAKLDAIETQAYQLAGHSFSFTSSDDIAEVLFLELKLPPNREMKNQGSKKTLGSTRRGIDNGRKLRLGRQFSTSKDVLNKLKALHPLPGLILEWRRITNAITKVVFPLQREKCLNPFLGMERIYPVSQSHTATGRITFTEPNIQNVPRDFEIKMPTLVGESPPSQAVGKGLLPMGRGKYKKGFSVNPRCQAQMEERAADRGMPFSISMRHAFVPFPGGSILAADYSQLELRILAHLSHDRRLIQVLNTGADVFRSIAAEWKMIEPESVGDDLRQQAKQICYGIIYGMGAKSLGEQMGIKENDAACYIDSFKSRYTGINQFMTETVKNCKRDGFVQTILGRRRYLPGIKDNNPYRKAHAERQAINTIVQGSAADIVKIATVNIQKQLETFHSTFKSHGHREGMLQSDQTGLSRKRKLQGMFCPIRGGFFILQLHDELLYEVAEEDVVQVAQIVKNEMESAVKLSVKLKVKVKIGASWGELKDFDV
Protocol: For the MMEJ in vitro assay in the presence of RTx-161, 10 nM Polθ-pol was first mixed with DMSO (3% final concentration) or RTx-161 at indicated final concentrations 4–500 nM in reaction buffer (25 mM Tris-HCl pH 7.5, 10 mM MgCl2, 10% glycerol, 0.1 mg/mL BSA, 0,01% IGEPAL CA-630, 1 mM DTT) followed by incubation for 5 min at room temperature. MMEJ reactions were started by the addition of 50 μM dNTP and 25 nM 5’-^32P radiolabeled pssDNA (RP343/^32P-RP344), incubated for 15 min at 37 °C, stopped by the addition of denaturing formamide loading buffer with 50 mM EDTA, resolved in denaturing 20% PAGE and analyzed using Typhoon PhosphorImager (GE Amersham). Quantification was performed using ImageQuant TL software. For the MMEJ in vitro assay in the presence of MC160385, 0.2–10 μM MC160385, 10 nM Polθ-pol, 60 nM 5’-^32P radiolabeled pssDNA and 100 μM dNTPs were used. The reaction was performed as above and stopped by the Proteinase K treatment in 50 mM EDTA and 0.5% SDS. The products were resolved in native 12% PAGE at room temp and analyzed as above.

Polθ-pol:DNA/DNA complex = biological target: T2, Polθ-pol:DNA/DNA complex (Homo sapiens, UniProt O75417); assay: KpnI endonuclease protection assay; conditions: for trapping of post-catalytic complexes, different sequence context / i (%), normalized to 100%, ave(%) / i (%), replicates / i+1 (%) normalized to 100%, ave(%) / i+1 (%), replicates: KpnI; for i (%), normalized to 100%, ave(%) / i (%), replicates: 14 nt i; for i+1 (%) normalized to 100%, ave(%) / i+1 (%), replicates: 15 nt i+1
T2 construct: purified recombinant human Polθ-pol (comprising amino acid residues 1792–2590); made in house
T2 sequence (O75417 1792-2590): T1 sequence (O75417 1792-2590)
Protocol: (§1) EcoRI and KpnI endonucleases assay: 25 nM 5’-^32P radiolabeled primer-template DNA Sc15-EcoRI (5’-^32P LM3-EcoRI/LM4-EcoRI) or Sc19-KpnI (5’-^32P LM11-Kpn/LM12-Kpn) in reaction buffer (25 mM Tris-HCl pH 7.5, 10 mM MgCl2, 10% glycerol, 0.1 mg/mL BSA, 0,01% igepal, 1 mM DTT) were incubated in the presence or in the absence of 50 nM Polθ-pol, 100 μM ddCTP, and 10 μM inhibitors, as indicated, for 5 min at room temperature. Next, 0.08 U/μL EcoRI or KpnI together with 500 nM “trapping” DNA Sc14 (RP559/RP702) were added and incubated for further 0–40 min at 30 °C as indicated. 10 nM PolθΔcen and FL-Polθ and 25 nM Sc15-EcoRI and Sc19-Kpn were probed with 0.04 U/μL EcoRI or KpnI (both from New England Biolabs) using the same conditions. Reactions were stopped by addition of formamide loading buffer with 50 mM EDTA, resolved in denaturing 20% urea PAAG and analyzed using Typhoon PhosphorImager (GE Amersham). Quantification was done in ImageQuant TL software. All quantified experiments were performed in triplicates and plotted as mean with ± s.d using GraphPad Prism 9 software.

EcoRI = biological target: T3, EcoRI (Escherichia coli, UniProt P00642); assay: EcoRI cleavage control in the absence of Polθ-pol; conditions: for cleavage %: EcoRI; for inhibition of EcoRI activity: absence of Polθ-pol; for % cleavage: compound 10 µM
T3 construct: purchased New England Biolabs
Protocol: as §1

KpnI = biological target: T4, KpnI (Klebsiella pneumoniae, UniProt P25237); assay: KpnI cleavage control in the absence of Polθ-pol; conditions: for cleavage %: KpnI; for inhibition of KpnI activity: absence of Polθ-pol; for % cleavage: compound 10 µM
T4 construct: purchased New England Biolabs
T4 sequence (P25237 1-218): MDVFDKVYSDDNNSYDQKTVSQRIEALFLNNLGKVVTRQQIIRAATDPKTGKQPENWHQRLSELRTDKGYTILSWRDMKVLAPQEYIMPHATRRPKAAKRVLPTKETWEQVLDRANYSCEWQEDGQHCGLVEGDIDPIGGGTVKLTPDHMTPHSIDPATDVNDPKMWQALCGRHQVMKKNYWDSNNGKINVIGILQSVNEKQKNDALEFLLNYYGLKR
Protocol: as §1

T3 sequence (P00642 2-277 limits assumed): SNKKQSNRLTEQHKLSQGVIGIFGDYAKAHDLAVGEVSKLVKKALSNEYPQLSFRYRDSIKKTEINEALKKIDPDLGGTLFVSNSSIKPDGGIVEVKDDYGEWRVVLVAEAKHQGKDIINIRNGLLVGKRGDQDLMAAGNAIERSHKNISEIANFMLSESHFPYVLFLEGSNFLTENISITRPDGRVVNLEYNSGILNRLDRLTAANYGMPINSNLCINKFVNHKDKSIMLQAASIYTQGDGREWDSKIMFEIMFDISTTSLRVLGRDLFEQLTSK

CN(C(=O)Oc1ccc(C(F)(F)F)cc1C(F)(F)F)c1ccc(F)cc1 [MC160385]
inhibition of Polθ-pol MMEJ activity in vitro (Polθ-pol): substantial Polθ-pol MMEJ inhibition

CN1CCN(c2cc(C(F)(F)F)cc(C(F)(F)F)c2OC(=O)N(C)c2ccc(F)cc2)C1=O [RTx-152]
KpnI cleavage %, ave (Polθ-pol:DNA/DNA complex; Kpn+pol+ddC+RTx152, 2.5min): 0.358%
KpnI cleavage %, replicates (Polθ-pol:DNA/DNA complex; Kpn+pol+ddC+RTx152, 2.5min): 0.0% and 0.447% and 0.6%
KpnI cleavage %, ave (Polθ-pol:DNA/DNA complex; Kpn+pol+ddC+RTx152, 5min): 0.665%
KpnI cleavage %, replicates (Polθ-pol:DNA/DNA complex; Kpn+pol+ddC+RTx152, 5min): 0.321% and 0.8% and 0.9%
KpnI cleavage %, ave (Polθ-pol:DNA/DNA complex; Kpn+pol+ddC+RTx152, 10min): 2.1%
KpnI cleavage %, replicates (Polθ-pol:DNA/DNA complex; Kpn+pol+ddC+RTx152, 10min): 1.8% and 2.3% and 2.0%
trapping of post-catalytic complexes, different sequence context (Polθ-pol:DNA/DNA complex): identical trapping
i (%), normalized to 100%, ave(%) (Polθ-pol:DNA/DNA complex; pol+ddC+152, 2.5 min): 100.0%
i (%), replicates (Polθ-pol:DNA/DNA complex; pol+ddC+152, 2.5 min): 35.4% and 37.2% and 33.9%
i+1 (%) normalized to 100%, ave(%) (Polθ-pol:DNA/DNA complex; pol+ddC+152, 2.5 min): 100.0%
i+1 (%), replicates (Polθ-pol:DNA/DNA complex; pol+ddC+152, 2.5 min): 53.1% and 50.1% and 54.1%
i (%), normalized to 100%, ave(%) (Polθ-pol:DNA/DNA complex; pol+ddC+152, 5 min): 85.8%
i (%), replicates (Polθ-pol:DNA/DNA complex; pol+ddC+152, 5 min): 30.7% and 32.1% and 28.6%
i+1 (%) normalized to 100%, ave(%) (Polθ-pol:DNA/DNA complex; pol+ddC+152, 5 min): 107.9%
i+1 (%), replicates (Polθ-pol:DNA/DNA complex; pol+ddC+152, 5 min): 57.1% and 52.5% and 60.1%
i (%), normalized to 100%, ave(%) (Polθ-pol:DNA/DNA complex; pol+ddC+152, 10 min): 63.7%
i (%), replicates (Polθ-pol:DNA/DNA complex; pol+ddC+152, 10 min): 21.4% and 24.5% and 21.9%
i+1 (%) normalized to 100%, ave(%) (Polθ-pol:DNA/DNA complex; pol+ddC+152, 10 min): 120.8%
i+1 (%), replicates (Polθ-pol:DNA/DNA complex; pol+ddC+152, 10 min): 62.6% and 62.1% and 65.2%
cleavage % (EcoRI; 3 min): 27.4%
cleavage % (EcoRI; 6 min): 49.4%
inhibition of EcoRI activity (EcoRI): resistant to inhibition; also recorded: do not inhibit
% cleavage (EcoRI; cleavage 3 min): 27%
% cleavage (EcoRI; cleavage 6 min): 49%
cleavage % (KpnI; 3 min): 21.3%
cleavage % (KpnI; 6 min): 35.8%
inhibition of KpnI activity (KpnI): resistant to inhibition
% cleavage (KpnI; cleavage 3 min): 21%
% cleavage (KpnI; cleavage 6 min): 36%

CN(C(=O)Oc1c(N2CCN(CCO)C2=O)cc(C(F)(F)F)cc1C(F)(F)F)c1ccc(F)cc1 [RTx-161]
inhibition of Polθ-pol MMEJ activity in vitro (Polθ-pol): concentration dependent inhibition
KpnI cleavage %, ave (Polθ-pol:DNA/DNA complex; Kpn+pol+ddC+RTx161, 2.5min): 0.667%
KpnI cleavage %, replicates (Polθ-pol:DNA/DNA complex; Kpn+pol+ddC+RTx161, 2.5min): 1.0% (2×) and 0.0%
KpnI cleavage %, ave (Polθ-pol:DNA/DNA complex; Kpn+pol+ddC+RTx161, 5min): 0.667%
KpnI cleavage %, replicates (Polθ-pol:DNA/DNA complex; Kpn+pol+ddC+RTx161, 5min): 1.0% (2×) and 0.0%
KpnI cleavage %, ave (Polθ-pol:DNA/DNA complex; Kpn+pol+ddC+RTx161, 10min): 1.7%
KpnI cleavage %, replicates (Polθ-pol:DNA/DNA complex; Kpn+pol+ddC+RTx161, 10min): 2.0% (2×) and 1.0%
trapping of post-catalytic complexes, different sequence context (Polθ-pol:DNA/DNA complex): identical trapping
i (%), normalized to 100%, ave(%) (Polθ-pol:DNA/DNA complex; pol+ddC+161, 2.5 min): 100.0%
i (%), replicates (Polθ-pol:DNA/DNA complex; pol+ddC+161, 2.5 min): 37.5% and 36.0% and 24.6%
i+1 (%) normalized to 100%, ave(%) (Polθ-pol:DNA/DNA complex; pol+ddC+161, 2.5 min): 100.0%
i+1 (%), replicates (Polθ-pol:DNA/DNA complex; pol+ddC+161, 2.5 min): 53.1% and 51.8% and 59.1%
i (%), normalized to 100%, ave(%) (Polθ-pol:DNA/DNA complex; pol+ddC+161, 5 min): 87.7%
i (%), replicates (Polθ-pol:DNA/DNA complex; pol+ddC+161, 5 min): 33.9% and 31.6% and 20.7%
i+1 (%) normalized to 100%, ave(%) (Polθ-pol:DNA/DNA complex; pol+ddC+161, 5 min): 105.6%
i+1 (%), replicates (Polθ-pol:DNA/DNA complex; pol+ddC+161, 5 min): 54.8% and 55.9% and 62.4%
i (%), normalized to 100%, ave(%) (Polθ-pol:DNA/DNA complex; pol+ddC+161, 10 min): 67.8%
i (%), replicates (Polθ-pol:DNA/DNA complex; pol+ddC+161, 10 min): 26.7% and 24.4% and 15.5%
i+1 (%) normalized to 100%, ave(%) (Polθ-pol:DNA/DNA complex; pol+ddC+161, 10 min): 114.7%
i+1 (%), replicates (Polθ-pol:DNA/DNA complex; pol+ddC+161, 10 min): 61.3% and 62.1% and 64.7%
cleavage % (EcoRI; 3 min): 26.2%
cleavage % (EcoRI; 6 min): 44.3%
inhibition of EcoRI activity (EcoRI): resistant to inhibition; also recorded: do not inhibit
% cleavage (EcoRI; cleavage 3 min): 26%
% cleavage (EcoRI; cleavage 6 min): 44%
cleavage % (KpnI; 3 min): 20.2%
cleavage % (KpnI; 6 min): 33.3%
inhibition of KpnI activity (KpnI): resistant to inhibition
% cleavage (KpnI; cleavage 3 min): 20%
% cleavage (KpnI; cleavage 6 min): 33%
